Results: patent publication US8834858B2, “Treatment for dyslipidemia” (Solvotrin Therapeutics Ltd., priority 2011, dated 2014)
“Also recorded” adds a separate entry of the source. Where two headings read alike, the source gives them in different places.

Legend:
[1] = tested on: LDL cholesterol, HDL cholesterol, TG; settings: adult dyslipidemias; cited from earlier work
[2] = Incubation in diluted human intestinal contents; type: in vitro ADME; settings: prolonged period
Excerpt: (§1) Hydrolysis kinetics of isosorbide diaspirinate,” Eur. J. Pharm. Sciences 16 2002 297-304.

[3] = Hydrolysis of ST0702 in 50% human plasma; type: in vitro ADME; settings: 50% human plasma diluted with pH 7.4 buffer, 37° C.
Method: FIG. 1 depicts a progress curve for the disappearance of isosorbide-2-aspirinate-5-nicotinate (ST0702) following incubation (in vitro) in 50% human plasma diluted with pH 7.4 buffer at 37° C.
A Waters Spherisorb® (4 μm) C18 3.9×250 mm column was used for the plasma and enzyme study samples. The enzyme and plasma study samples were analysed using a gradient method employing a mobile phase consisting of pH 3.19 phosphate buffer:acetonitrile 90:10 grading to 10:90 over the first ten minutes then back to 65:35 to 12 minutes and grading to 90:10 to 17 minutes at which it was held to 30 minutes. The eluent in both methods was monitored at 230 nm and peak identity and homogeneity confirmed by PDA analysis. Quantitation was performed by comparison of peak areas with external standards run under the same conditions at about the same concentration. The flow rate was 1 ml/min.
For the hydrolysis experiments pooled plasma or serum solutions (4 ml) were prepared by centrifugation of citrated human venous blood and dilution with pH 7.4 phosphate buffer as appropriate. Whole blood was used undiluted. […] 20 μl aliquots of the supernatant were analysed by HPLC. Hydrolysis was monitored until consumption of the parent ester. […] Cholinesterase activity of plasma, serum and whole blood was evaluated using the Ellman approach with butyryl thiocholine as substrate. […]

[4] = Incubation with rat intestinal preparation; type: in vitro ADME
[5] = pH 7.4
Method: Microsomes from human hepatocytes (post mortem tissue) were diluted with pH 7.4 buffer and the suspension warmed to 37° C. ST0702 was introduced and samples withdrawn at successive time intervals.
Hydrolysis kinetics of isosorbide diaspirinate,” Eur. J. Pharm.

[6] = Incubation in human gastric juice; type: in vitro ADME; settings: over 60 minutes
Excerpt: as §1

prostaglandin D2 (PGD2) = assay: NHP crossover study: serum PGD2; type: in vivo, cynomolgus monkeys
Method: (§2) For TxB2, an additional 0.4 mL whole blood aliquots were placed in siliconised glass tubes to induce a clotting response and the supernatants were analysed for TxB2 using a Luminex ELISA immunoassay. PGD2 was analysed from serum directly using a Luminex ELISA immunoassay.

[7] = Stomach irritation on administration of compound I; type: in vivo; settings: statement in description; test not named
Method: Therefore, stomach irritation is not observed with the administration of isosorbide-2-acetylsalicylate-5-nicotinic acid (I). […] In some embodiments, the present invention provides a composition comprising isosorbide-2-acetylsalicylate-5-nicotinic acid (I) wherein the composition protects the gastrointestinal mucosa from irritation and inflammation.
Ulcerogenic effects of aspirin and aspirin pro-drugs ST0701, ST0702, and ST0703 were determined in rabbits using the following procedure. Healthy female rabbits (n=2 per group) were dosed (by oral gavage) for 3 consecutive days with 30 mg/kg of aspirin or the molar equivalent of ST0702 and the other pro drugs. Four hours post-dose on the final day, the rabbits were euthanized using an overdose of pentobarbitone and their stomachs and small intestine removed, washed with physiological saline, opened along the greater curvature and examined. The area (square millimeters) of both non-haemorrhagic and haemorrhagic lesions developed in the stomach/intestines were measured with a square grid under a dissecting microscope.

[8] = tested on: LDL cholesterol, Apolipoprotein B, TGs; assay: NHP crossover study: clinical chemistry (LDL-C, ApoB, TG)
Method: (§3) The primary study endpoint is change in plasma LDL cholesterol and Apolipoprotein B at 48 hours. An aliquot of 300 μL of serum transferred to a cryovial and was immediately placed in a freezer set to maintain −70° C. until analyzed for clinical chemistry (LDL cholesterol, Apolipoprotein B, TGs, glucose) using a standard Roche Analyser.

thromboxane B2 (TxB2) = assay: NHP crossover study: ex-vivo serum TxB2; type: in vivo, cynomolgus monkeys
Method: as §2

[9] = Incubation with pig intestinal S9 fraction; type: in vitro ADME
Method: FIG. 2 depicts a progress curve for the disappearance of ST0702 following incubation with pig intestinal S9 fraction.
as §1

[10] = Incubation with rabbit intestinal preparation; type: in vitro ADME
[11] = Incubation with mouse intestinal preparation; type: in vitro ADME
[12] = Incubation with microsomes from the human intestinal wall; type: in vitro ADME
Method: FIG. 7 depicts a progress curve following incubation of ST0702 in the presence of microsomes from the human intestinal wall.
as §1

serum glucose = assay: NHP crossover study: serum glucose
Method: as §3

TG, LDL, HDL = settings: atorvastatin 10 mg/day, Slo-Niacin to 1500 mg/day, 3-month segments; cited from earlier work
[13] = cited from earlier work
[14] = cited from earlier work; remark: listed apart in the source
[15] = cited from earlier work; remark: listed apart in the source
[16] = cited from earlier work; remark: listed apart in the source
PGD2 receptor-1 (DP1) = PGD2 receptor-1 (DP1) (Homo sapiens, UniProt Q13258); settings: cited from earlier work; for reduction of flushing associated with 1.5 g ER nicotinic acid: single dose study
Chain of PGD2 receptor-1 (DP1) (Q13258 whole entry): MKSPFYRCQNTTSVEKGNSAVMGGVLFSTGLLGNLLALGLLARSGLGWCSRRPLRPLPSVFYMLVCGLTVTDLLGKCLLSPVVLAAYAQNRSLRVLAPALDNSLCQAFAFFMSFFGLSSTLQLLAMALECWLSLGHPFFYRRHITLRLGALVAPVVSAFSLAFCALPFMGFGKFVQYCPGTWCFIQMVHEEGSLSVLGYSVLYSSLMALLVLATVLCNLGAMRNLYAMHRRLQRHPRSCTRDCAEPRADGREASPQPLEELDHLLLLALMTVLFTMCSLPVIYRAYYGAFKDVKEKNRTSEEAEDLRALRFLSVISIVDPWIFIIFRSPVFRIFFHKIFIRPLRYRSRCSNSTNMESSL

HbA1c = settings: cited from earlier work
[17] = tested on: fasting glucose, glycated albumin; settings: 4.0 g, one month; cited from earlier work
[18] = tested on: fasting glucose, glycated albumin, TG, total cholesterol; settings: cited from earlier work; for fall in fasting glucose levels: two weeks
[19] = baseline to 48 hours, 28 mg/kg niacin equivalents daily oral gavage, n=6
[20] = high risk patients (secondary prevention)

SMILES: O=C1[C@H](CC[C@H](O)c2ccc(F)cc2)[C@@H](c2ccc(O)cc2)N1c1ccc(F)cc1 [Ezetimibe]
- HDL cholesterol [1]: +3%
- LDL cholesterol [1]: −18 to −24%
- TG [1]: No change

SMILES: CC(=O)Oc1ccccc1C(=O)O[C@H]1CO[C@H]2[C@@H]1OC[C@H]2OC(=O)c1cccnc1 [ST0702, isosorbide-2-aspirinate-5-nicotinate]
- stability in human intestinal contents [2]: effectively unchanged
- disappearance of ST0702 / conversion to hydrolysis products [3]: rapid conversion to a series of hydrolysis products
- aspirin production from ST0702 [4]: do not produce aspirin
- hydrolysis pattern in human liver microsomes [5]: more significant direct hydrolysis at position 5 leading to direct nicotinic acid production
- metabolism in human gastric juice [6]: not metabolized
- reduction in PGD2 AUC levels compared to nicotinic acid (prostaglandin D2 (PGD2); over 24 hours): 8 fold
- PGD2 AUC (prostaglandin D2 (PGD2); over 24 hours post dosing, equimolar doses): 16.2 ± 6.4 ng·h/mL
- stomach irritation [7]: not observed
- TG levels at 48 hours (follow up) ([8]; 48 hours): 55 ± 24 mg/dL
- TG levels at baseline ([8]; baseline): 59 ± 29 mg/dL
- increase in TG levels (non-significant) ([8]; baseline to 48 hours): 4.4%
- reduction from baseline in LDL cholesterol [8, 19]: 53%
- reduction from baseline in apolipoprotein B [8, 19]: 42%
- serum TxB2 suppression (thromboxane B2 (TxB2); at 24 and 48 hours): > 95%
- serum TxB2 levels (thromboxane B2 (TxB2); from 15 minutes on, within group and vs niacin): significantly reduced
- aspirin production from ST0702 [9]: do not produce aspirin
- aspirin production from ST0702 [10]: do not produce aspirin
- aspirin production from ST0702 [11]: do not produce aspirin
- hydrolysis pattern in human intestinal wall microsomes [12]: hydrolysis predominantly at the isosorbide-2-position liberating aspirin and isosorbide-5-nicotinate
- serum glucose change from baseline (serum glucose; 1 hour post dose): significant decrease
- plasma glucose versus baseline (serum glucose; 4 hours post dose): remained below baseline levels; also recorded: significant reduction

SMILES: CC(C)c1c(C(=O)Nc2ccccc2)c(-c2ccccc2)c(-c2ccc(F)cc2)n1CC[C@@H](O)C[C@@H](O)CC(=O)O [Atorvastatin]
- HDL (TG, LDL, HDL): +6%
- LDL (TG, LDL, HDL): −36%
- TG (TG, LDL, HDL): −26%

SMILES: CC(=O)Oc1ccccc1C(=O)O [aspirin]
- Lowest effective daily dose ([13]; Acute MI): 160 mg
- Lowest effective daily dose ([13]; Acute ischaemic stroke): 160 mg
- Lowest effective daily dose ([13]; Hypertension): 75 mg
- Lowest effective daily dose ([13]; Men at high CV risk): 75 mg
- Lowest effective daily dose ([13]; Polycythemia): 100 mg
- Lowest effective daily dose ([13]; Severe carotid artery stenosis): 75 mg
- Lowest effective daily dose ([13]; Stable angina): 75 mg
- Lowest effective daily dose ([13]; TIA and ischaemic stroke): 50 mg
- Lowest effective daily dose ([13]; Unstable angina): 75 mg
- effect on flushing symptoms ([14]; 325 mg, 30-60 minutes before IR nicotinic acid): attenuated flushing symptoms
- patients with moderate or greater flushing ([14]; first week of treatment, with vs without aspirin): 15%
- flushing-specific discontinuation rate ([14]; four week study, 325 mg aspirin before ER nicotinic acid vs no aspirin): 1.8%
- reduction of the incidence of flushing ([14]; pre-treatment with aspirin): 18%
- mean rate of treatment discontinuation because of nicotinic acid flushing ([14]; with adjunctive aspirin): approximately 6.5%
- patients with at least occult bleeding ([15]; daily aspirin use even at low doses): More than 75%
- absolute annual increased risk of major bleeding episodes ([15]; low dose aspirin (75-325 mg daily), 22 randomized trials): 1.3 per 1000 patients
- prevention of non-fatal vascular events [16, 20]: about 30%
- prevention of vascular death [16, 20]: approximately 15%
- risk reduction ([16]; patients with unstable angina): approximately 50%
- reductions in risk of MI ([16]; primary prevention): 25%-33
- avoidance of a major vascular event ([16]; prior MI, stroke, or TIA, approximately 30 months): 36 per 1,000 patients
- avoidance of a major vascular event ([16]; unstable angina, treated for 6 months): 50 per 1,000 patients

SMILES: CS(=O)(=O)c1cc(F)cc2c3c(n(Cc4ccc(Cl)cc4)c12)[C@@H](CC(=O)O)CC3 [laropiprant]
- reduction of flushing associated with 1.5 g ER nicotinic acid (PGD2 receptor-1 (DP1); 30 mg dose): 47%
- reduction of flushing associated with 1.5 g ER nicotinic acid (PGD2 receptor-1 (DP1); 100 mg dose): 67%
- reduction of flushing associated with 1.5 g ER nicotinic acid (PGD2 receptor-1 (DP1); 300 mg dose): 74%
- overall discontinuation rate (PGD2 receptor-1 (DP1); 4,700 patients, ER nicotinic acid without vs with added laropiprant): 25.3%
- rate of moderate/severe flushing (PGD2 receptor-1 (DP1); nicotinic acid without vs with added laropiprant (Kush 2009)): 24%

SMILES: O=C(Oc1ccccc1C(=O)O)c1ccccc1O [salsalate]
- mean change in HbA1c levels compared with placebo (HbA1c; 3.0 g daily): −0.36%
- mean change in HbA1c levels compared with placebo (HbA1c; 3.5 g daily): −0.34%
- mean change in HbA1c levels compared with placebo (HbA1c; 4.0 g daily): −0.49%
- reduction of fasting glucose compared with placebo [17]: 13%
- reduction of glycated albumin [17]: 17%
- reduction of glycemic response after an oral glucose challenge [17]: 20%
- fall in fasting glucose levels ([18]; 3.0 g/daily): 9%
- decrease in TG concentrations ([18]; 3.0 g): 11%
- fall in fasting glucose levels ([18]; 4.5 g daily): 19%
- reduction in glycated albumin ([18]; 4.5 g dose): 19%
- decrease in TG concentrations ([18]; 4.5 g): 40%
- fall in total cholesterol ([18]; in vivo): 12%
